Test: wn = mass fraction of the nth substance listed
Details: for surface tension liquid-gas: Maximal bubble pressure; for mass density: 100 kPa, Liquid, Vibrating tube method

CCn1cc[n+](CCOC)c1.O=S(=O)([O-])C(F)(F)F + O
Details	mass density, w2 = 0.00185 [kg/m3]	mass density, w2 = 0.0038 [kg/m3]	mass density, w2 = 0.00537 [kg/m3]	mass density, w2 = 0.00665 [kg/m3]	mass density, w2 = 0.00891 [kg/m3]	surface tension liquid-gas, w2 = 0.0016 [mN/m]	surface tension liquid-gas, w2 = 0.00284 [mN/m]	surface tension liquid-gas, w2 = 0.00419 [mN/m]	surface tension liquid-gas, w2 = 0.0056 [mN/m]	surface tension liquid-gas, w2 = 0.007 [mN/m]
298.15 K	1355.32	1354.72	1354.29	1353.79	1353.19	38.2	38.4	38.6	38.8	39
303.15 K	1351.04	1350.44	1350	1349.52	1348.89	37.9	38.1	38.3	38.4	38.6
308.15 K	1346.78	1346.18	1345.72	1345.26	1344.62	37.6	37.8	37.9	38.1	38.3
313.15 K	1342.54	1341.93	1341.46	1341.03	1340.36	37.3	37.5	37.7	37.9	38.1
318.15 K	1338.31	1337.7	1337.22	1336.82	1336.12	37.1	37.3	37.5	37.7	37.9
323.15 K	1334.1	1333.49	1333	1332.62	1331.9	36.8	37	37.2	37.5	37.7
328.15 K	1329.9	1329.3	1328.79	1328.44	1327.7	36.5	36.7	36.9	37.1	37.3
333.15 K	1325.72	1325.11	1324.6	1324.26	1323.51	36.3	36.5	36.7	36.9	37.1
338.15 K	1321.54	1320.94	1320.43	1320.1	1319.34	36	36.2	36.3	36.5	36.7

CC(=O)[O-].CCn1cc[n+](CCOC)c1 [1-ethyl-3-(2-methoxyethyl)imidazolium acetate] + O
Details	mass density, w2 = 0.00822 [kg/m3]	mass density, w2 = 0.00966 [kg/m3]	mass density, w2 = 0.01112 [kg/m3]	mass density, w2 = 0.01254 [kg/m3]	mass density, w2 = 0.01399 [kg/m3]	surface tension liquid-gas, w2 = 0.00188 [mN/m]	surface tension liquid-gas, w2 = 0.0034 [mN/m]	surface tension liquid-gas, w2 = 0.00488 [mN/m]	surface tension liquid-gas, w2 = 0.00638 [mN/m]	surface tension liquid-gas, w2 = 0.00792 [mN/m]
298.15 K	1193.01	1193.1	1193.21	1193.32	1193.44	46.3	46.5	46.7	47	47.3
303.15 K	1189.68	1189.78	1189.89	1189.98	1190.11	46	46.2	46.4	46.7	47
308.15 K	1186.36	1186.45	1186.56	1186.66	1186.79	45.7	45.9	46.2	46.4	46.7
313.15 K	1183.05	1183.14	1183.25	1183.35	1183.48	45.4	45.7	45.9	46.1	46.4
318.15 K	1179.76	1179.85	1179.96	1180.06	1180.19	45.1	45.3	45.6	45.8	46.1
323.15 K	1176.48	1176.57	1176.68	1176.78	1176.91	44.8	45.1	45.3	45.5	45.8
328.15 K	1173.21	1173.31	1173.42	1173.52	1173.65	44.6	44.9	45.1	45.3	45.6
333.15 K	1169.97	1170.06	1170.17	1170.27	1170.4	44.4	44.7	44.8	45.1	45.3
338.15 K	1166.74	1166.82	1166.93	1167.03	1167.16	44.2	44.5	44.6	44.9	45.1

CCn1cc[n+](CCOC)c1.N#C[N-]C#N [1-ethyl-3-(2-methoxyethyl)imidazolium dicyanamide] + O
Details	mass density, w2 = 0.00148 [kg/m3]	mass density, w2 = 0.00277 [kg/m3]	mass density, w2 = 0.00434 [kg/m3]	mass density, w2 = 0.0055 [kg/m3]	mass density, w2 = 0.00719 [kg/m3]	surface tension liquid-gas, w2 = 0.00031 [mN/m]	surface tension liquid-gas, w2 = 0.00175 [mN/m]	surface tension liquid-gas, w2 = 0.00317 [mN/m]	surface tension liquid-gas, w2 = 0.00461 [mN/m]	surface tension liquid-gas, w2 = 0.00609 [mN/m]
298.15 K	1113.35	1113.18	1112.96	1112.77	1112.46	44.7	44.9	45.3	45.6	45.9
303.15 K	1109.96	1109.78	1109.57	1109.37	1109.06	44.4	44.7	45	45.3	45.6
308.15 K	1106.58	1106.41	1106.19	1106	1105.69	44.1	44.4	44.7	45	45.3
313.15 K	1103.23	1103.05	1102.83	1102.64	1102.33	43.8	44.1	44.4	44.7	45
318.15 K	1099.89	1099.72	1099.5	1099.3	1098.99	43.5	43.8	44.1	44.4	44.7
323.15 K	1096.58	1096.4	1096.18	1095.98	1095.66	43.2	43.5	43.8	44.2	44.4
328.15 K	1093.27	1093.1	1092.88	1092.68	1092.36	43	43.3	43.6	44	44.2
333.15 K	1090	1089.82	1089.59	1089.4	1089.08	42.7	43.1	43.4	43.7	44
338.15 K	1086.74	1086.56	1086.33	1086.13	1085.81	42.4	42.8	43.1	43.4	43.7

CCn1cc[n+](CCOC)c1.N#C[S-] [1-ethyl-3-(2-methoxyethyl)imidazolium thiocyanate] + O
Details	mass density, w2 = 0.00246 [kg/m3]	mass density, w2 = 0.00426 [kg/m3]	mass density, w2 = 0.00608 [kg/m3]	mass density, w2 = 0.00832 [kg/m3]	mass density, w2 = 0.00975 [kg/m3]	surface tension liquid-gas, w2 = 0.00382 [mN/m]	surface tension liquid-gas, w2 = 0.00528 [mN/m]	surface tension liquid-gas, w2 = 0.00668 [mN/m]	surface tension liquid-gas, w2 = 0.00811 [mN/m]	surface tension liquid-gas, w2 = 0.00956 [mN/m]
298.15 K	1121.78	1121.54	1121.29	1120.96	1120.82	49.3	49.4	49.5	49.6	49.7
303.15 K	1118.56	1118.32	1118.08	1117.75	1117.6	49	49.1	49.2	49.3	49.4
308.15 K	1115.36	1115.12	1114.88	1114.54	1114.4	48.7	48.8	48.9	49	49.1
313.15 K	1112.18	1111.94	1111.7	1111.35	1111.21	48.4	48.5	48.6	48.8	48.9
318.15 K	1109.03	1108.77	1108.54	1108.18	1108.03	48.1	48.2	48.3	48.5	48.6
323.15 K	1105.88	1105.63	1105.39	1105.02	1104.87	47.8	47.9	48	48.1	48.2
328.15 K	1102.76	1102.5	1102.25	1101.87	1101.72	47.6	47.7	47.8	47.9	48
333.15 K	1099.65	1099.38	1099.13	1098.74	1098.59	47.4	47.5	47.6	47.7	47.8
338.15 K	1096.55	1096.28	1096.02	1095.62	1095.47	47.1	47.2	47.3	47.5	47.6
